Laboratory results taken from publication PMC7801736 (ACS infectious diseases, 2019).
≈ marks a conversion by molar mass, not a printed value. Like-named read-outs stand apart in the source and are kept apart here.

Tests used:
[1] = system: M. tuberculosis strain fgd1::tn; experiment: microbe, parasite or virus in culture; format: cell-based; details: for MIC shift, fgd1::tn strain: fgd1::tn vs H37Rv; for MIC: Mycobacterium tuberculosis, read-out: MIC (µM) fgd1::tn
M. tuberculosis H37Rv [2] = experiment: Griess assay for NO· quantification, H37Rv; format: cell-based, Mycobacterium tuberculosis; details: for NO· production (supernatant nitrite concentration), 20 µM compound / NO· production (supernatant nitrite concentration), 100 µM compound: 2 days
M. tuberculosis fgd1::tn [3] = experiment: Griess assay for NO· quantification, fgd1::tn; format: cell-based, Mycobacterium tuberculosis; details: F420H2 cofactor deficiency; 20 or 100 µM
[4] = system: M. tuberculosis strain ddn::tn; experiment: microbe, parasite or virus in culture; format: cell-based; details: Mycobacterium tuberculosis, read-out: MIC (µM) ddn::tn
in vitro = format: cell-based; details: African green monkey
[5] = target: purified M. tuberculosis InhA (Mycobacterium tuberculosis, UniProt P9WGR1); experiment: biochemical
M. tuberculosis H37Rv [6] = format: cell-based, Mycobacterium tuberculosis
[7] = system: M. tuberculosis fatty acid biosynthesis; format: cell-based, Mycobacterium tuberculosis
[8] = system: M. tuberculosis streptomycin-sensitive (ss18b) strain; format: cell-based, Mycobacterium tuberculosis; details: streptomycin-starved nonreplicating model; 7 days treatment
M. tuberculosis H37Rv [9] = details: for time of treatment after which intrabacterial metabolite was detectable: H37Rv, 20 µM JSF-2164
M. tuberculosis fgd1::tn [10] = details: 20 µM JSF-2164
InhA = details: cited from earlier work
[11] = read-out: % InhA inhibition at 50 µM with 1% CMC Tween-20, 50 µM compound, 1% CMC Tween-20

Sequence of purified M. tuberculosis InhA (P9WGR1 whole entry, looked up): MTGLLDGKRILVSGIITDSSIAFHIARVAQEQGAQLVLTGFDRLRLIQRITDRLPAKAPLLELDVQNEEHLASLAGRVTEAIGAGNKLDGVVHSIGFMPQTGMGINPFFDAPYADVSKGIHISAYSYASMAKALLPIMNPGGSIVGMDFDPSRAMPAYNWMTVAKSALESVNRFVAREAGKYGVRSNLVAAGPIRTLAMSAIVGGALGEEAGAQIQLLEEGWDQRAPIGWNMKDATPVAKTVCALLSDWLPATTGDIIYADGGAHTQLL

| Compound | MIC shift, fgd1::tn strain [1] | NO· production (supernatant nitrite concentration), 20 µM compound (M. tuberculosis H37Rv [2]; 20 µM exposure) | NO· production (supernatant nitrite concentration), 100 µM compound (M. tuberculosis H37Rv [2]; 100 µM exposure) | NO· production in fgd1::tn strain (M. tuberculosis fgd1::tn [3]) | MIC [1] | MIC [4] | inhibition at 50 µM [5, 11] | time of treatment after which intrabacterial metabolite was detectable (M. tuberculosis H37Rv [9]) | time of treatment after which intrabacterial metabolite was discernible (M. tuberculosis fgd1::tn [10]) | other results |
| --- | --- | --- | --- | --- | --- | --- | --- | --- | --- | --- |
| O=[N+]([O-])c1cn2c(n1)OC[C@@H](OCc1ccc(OC(F)(F)F)cc1)C2 [pretomanid] | > 500 fold | 9.8 µM | 17 µM | abolished | – | – | – | – | – | NO· release (ratio of nitrite concentration to compound dose), 20 µM compound (M. tuberculosis H37Rv [2]; 20 µM exposure, initial 2 days): 49%; NO· release (ratio of nitrite concentration to compound dose), 100 µM compound (M. tuberculosis H37Rv [2]; 100 µM exposure, initial 2 days): 17% |
| COc1cccc(Nc2ccc([N+](=O)[O-])c3nonc23)c1 [JSF-2164, N-(3-methoxyphenyl)-7-nitrobenzo[c][1,2,5]oxadiazol-4-amine] | > 20 fold | 0.84 µM | 6.7 µM | abolished | > 200 µM | 8 µM (≈ 2.29 µg/mL) | 44 ± 1% | – | – | CC50 (in vitro): 44 to 87 µM; IC50 versus purified InhA relative to MIC against the H37Rv strain ([5]; IC50 larger than MIC): ca. 5 fold; IC50 ([5]; InhA IC50 (µM), without Tween-20, mean ± standard error): 51 µM; IC50 ([5]; InhA IC50 with Tween-20, Tween-20 at 1% of its CMC in enzymatic buffer): 65 ± 16 µM; inhibition at 50 µM ([5]; read-out: InhA Inhibition at 50 µM Cmpd, 50 µM compound, commercial material, mean ± standard error): ≥ 50%; inhibition at 50 µM ([5]; read-out: InhA inhibition at 50 µM compound, synthetic material, 50 µM compound, […]): 44%; bactericidal classification (MBC within 4-fold of MIC) (M. tuberculosis H37Rv [6]): not formally bactericidal; reduction in M. tuberculosis colony-forming units/mL (M. tuberculosis H37Rv [6]; 16× MIC, over 7 days, H37Rv): ca. 1 log10; effect on MAMEs and FAMEs (TLC) [7]: did not exhibit a pattern similar to that for INH; in vitro efficacy versus ss18b strain [8]: exhibited in vitro efficacy; time at which intrabacterial compound was degraded to a negligible level (M. tuberculosis H37Rv [9]; Mycobacterium tuberculosis): ≥ 4 h |
| COc1cccc(Nc2ccc(N)c3nonc23)c1 [JSF-3616, N4-(3-methoxyphenyl)-benzo[c][1,2,5]oxadiazole-4,7-diamine] | – | – | – | – | 32 µM (≈ 8.2 µg/mL) | 32 µM (≈ 8.2 µg/mL) | 46 ± 2.9% | 30 min | 4 h | – |
| NNC(=O)c1ccncc1 [isoniazid, reference compound] | – | – | – | – | 0.078 µM (≈ 0.0107 µg/mL) | 0.078 µM (≈ 0.0107 µg/mL) | – | – | – | – |
| CCCCCCc1ccc(Oc2ccccc2C)c(O)c1 [PT70] | – | – | – | – | – | – | – | – | – | Ki (InhA): 0.0078 µM; residence time (InhA): 24 min |
| COc1cccc(Nc2ccc3nonc3c2N)c1 [JSF-3617, N5-(3-methoxyphenyl)benzo[c][1,2,5]oxadiazole-4,5-diamine] | – | – | – | – | 125 µM (≈ 32 µg/mL) | 250 µM (≈ 64.1 µg/mL) | 77 ± 0.74% | 30 min | 4 h | – |
